Each compound was assayed against T1, MNK2a (Homo sapiens, UniProt Q9HBH9) (assay: MNK2a in vitro kinase assay (assay 1), ADP-Glo). Conditions: preactivated GST-MNK2a, 20 μM ATP, read-out: MNK2 IC50.
T1 construct: made in house
Format: biochemical
In short: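 Preactivated GST-MNK2a (10 nM) with eIF4E peptide (25 μM) and ATP (20 μM) in HEPES/DTT/MgCl2 buffer, 90 min at room temperature, final DMSO <3%. ADP formed read by ADP-Glo luminescence and normalised to vehicle and 20 μM reference-inhibitor controls; IC50 from dose-response curves.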

T1 sequence (Q9HBH9 whole entry): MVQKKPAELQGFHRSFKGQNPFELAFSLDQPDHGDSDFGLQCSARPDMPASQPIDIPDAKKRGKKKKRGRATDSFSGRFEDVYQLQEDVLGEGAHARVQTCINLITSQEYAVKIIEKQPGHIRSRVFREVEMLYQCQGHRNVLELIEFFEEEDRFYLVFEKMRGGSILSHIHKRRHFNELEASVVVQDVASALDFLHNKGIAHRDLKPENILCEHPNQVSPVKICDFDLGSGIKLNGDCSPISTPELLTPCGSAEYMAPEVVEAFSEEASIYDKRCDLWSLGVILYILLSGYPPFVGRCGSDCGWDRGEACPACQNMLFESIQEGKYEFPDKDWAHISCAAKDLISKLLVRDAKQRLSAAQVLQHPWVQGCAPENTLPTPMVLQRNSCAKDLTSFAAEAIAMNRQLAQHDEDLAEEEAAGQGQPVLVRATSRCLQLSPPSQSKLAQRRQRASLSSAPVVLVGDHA

Row | IC50 [nM] | SMILES
1 | 4 | Cc1cc(N=S2(=O)CCOCC2)cc2ncnc(Nc3ccc(F)cc3O[C@@H]3CO[C@H]4[C@@H]3OC[C@H]4O)c12 [Example 2.2]
2 | 6 | Cc1cc(N=S(C)(=O)c2ccncc2)cc2ncnc(Nc3ccc(F)cc3O[C@H]3CCOC3)c12 (stereo partly drawn) [Example 2.100]
3 | 2 | Cc1cc(N=S(C)(C)=O)cc2ncnc(Nc3ccc(F)cc3O[C@@H]3CO[C@H]4[C@@H]3OC[C@H]4O)c12 [Example 1.18]
4 | 5 | CO[C@@H]1CO[C@H]2[C@@H]1OC[C@H]2Oc1cc(F)ccc1Nc1ncnc2cc(N=S(C)(C)=O)cc(F)c12 [Example 2.76]
5 | 5 | Cc1cc(N=S2(=O)CCCC2)cc2ncnc(Nc3ccc(F)cc3O[C@@H]3CO[C@@H]4OCC[C@@H]43)c12 (racemic) [Example 2.82]
6 | 2 | O=S1(=Nc2cc(Cl)c3c(Nc4ccc(F)cc4O[C@H]4CCOC4)ncnc3c2)CCC1 [Example 1.26]
7 | 7 | CCS(C)(=O)=Nc1cc(C)c2c(Nc3ccc(F)cc3OC3CCOC3)ncnc2c1 (single isomer, unassigned) [Example 7.14]
8 | 19 | Cc1cc(N=S(C)(C)=O)cc2ncnc(Nc3ccc(F)cc3O[C@H]3CO[C@H]4[C@@H]3OC[C@@H]4O)c12 [Example 2.80]
9 | 4 | Cc1cc(N=S(C)(C)=O)cc2ncnc(Nc3ccc(F)cc3O[C@@H]3CO[C@H]4[C@@H]3OC[C@H]4OC(C)C)c12 [Example 2.28]
10 | 11 | Cc1cc(N=S(C)(C)=O)cc2ncnc(Nc3ccc(F)cc3O[C@@H]3CO[C@@H]4OCC[C@@H]43)c12 (racemic) [Example 2.62]
11 | 3 | Cc1cc(N=S(C)(C)=O)cc2ncnc(Nc3ccc(F)nc3O[C@H]3CCOC3)c12 [Example 1.40]
12 | 2 | Cc1cc(N=S2(=O)CCCC2)cc2ncnc(Nc3ccc(F)cc3O[C@H]3CC[C@H](O)CC3)c12 [Example 2.40]
13 | 4 | Cc1cc(N=S(C)(C)=O)cc2ncnc(Nc3ccc(C(N)=O)cc3OC3CCCC3)c12 [Example 2.24]
14 | 1 | Cc1cc(N=S2(=O)CCC2)cc2ncnc(Nc3ccc(F)cc3O[C@@H]3CO[C@@H]4CCO[C@@H]43)c12 [Example 2.106]
15 | 3 | Cc1cc(N=S(C)(C)=O)cc2ncnc(Nc3ccc(Cl)nc3O[C@H]3CCOC3)c12 [Example 1.41]
16 | 39 | CC(C)(C)OC(=O)N1CCC[C@@H](Oc2cc(F)ccc2Nc2ncnc3cc(N=S(C)(C)=O)cc(F)c23)C1 [Example 2.13]
17 | 10 | Cc1cc(N=S(C)(C)=O)cc2ncnc(Nc3ccc(F)cc3O[C@H]3C[C@H](N(C)C)C3)c12 [Example 7.15]
18 | 2 | Cc1cc(N=S(C)(C)=O)cc2ncnc(Nc3ccc(F)cc3O[C@@H]3CCCN(CC(F)(F)F)C3)c12 [Example 6.6]
19 | 5 | Cc1cc(N=S(C)(=O)C(C)(C)C#N)cc2ncnc(Nc3ccc(F)cc3O[C@H]3CCOC3)c12 (stereo partly drawn) [Example 2.111]
20 | 4 | Cc1cc(N=S(C)(C)=O)cc2ncnc(Nc3cccnc3O[C@H]3CC[C@H](N)CC3)c12 [Example 3.2]

What follows are compounds tested against MNK1a (Homo sapiens, UniProt Q9BUB5) (assay: MNK1 in vitro kinase assay (assay 2), Z'-LYTE). Conditions: compound concentration of 1 μM.
Format: biochemical
Excerpt: B. MNK1 In Vitro Kinase Assay (Assay 2)
MNK1 Data can be obtained from the MNK1 Z′-LYTE® assay. The MNK1 Z′-LYTE® screening protocol and assay conditions are also described on www.invitrogen.com.
The assay is described as follows:
The Z′-LYTE® biochemical assay employs a fluorescence-based, coupled-enzyme format and is based on the differential sensitivity of phosphorylated and non-phosphorylated peptides to proteolytic cleavage. The peptide substrate is labeled with two fluorophores—one at each end—that make up a FRET pair.
In the primary reaction, the kinase transfers the gamma-phosphate of ATP to a single tyrosine, serine or threonine residue in a synthetic FRET-peptide. In the secondary reaction, a site-specific protease recognizes and cleaves non-phosphorylated FRET-peptides. Phosphorylation of FRET-peptides suppresses cleavage by the Development Reagent. Cleavage disrupts FRET between the donor (i.e., coumarin) and acceptor (i.e., fluorescein) fluorophores on the FRET-peptide, whereas uncleaved, phosphorylated FRET-peptides maintain FRET. A ratiometric method, which calculates the ratio (the Emission Ratio) of donor emission to acceptor emission after excitation of the donor fluorophore at 400 nm, is used to quantitate reaction progress, as shown in the equation below. Emission Ratio=Coumarin Emission(445 nm)/Fluorescein Emission(520 nm)
ASSAY SETUP: The inhibition of kinase activity of MNK1a was assessed using pre-activated GST-MNK1a. The 2×MKNK1 (MNK1) mixture is prepared in 50 mM HEPES pH 7.5, 0.01% BRIJ-35, 10 mM MgCl2, 4 mM MnCl2, 1 mM EGTA, 2 mM DTT. The final 10 μL Kinase Reaction consists of 13.5-54 ng MKNK1 (MNK1) and 2 μM Ser/Thr 07 in 50 mM HEPES pH 7.5, 0.01% BRIJ-35, 10 mM MgCl2, 2 mM MnCl2, 1 mM EGTA, 1 mM DTT. After the 1 hour Kinase Reaction incubation, 5 μL of a 1:32768 dilution of Development Reagent A is added.
The Test Compounds are screened in 1% DMSO (final) in the well.
All Peptide/Kinase Mixtures are diluted to a 2× working concentration in the MNK1 Kinase Buffer.
All ATP Solutions are diluted to a 4× working concentration in Kinase Buffer (50 mM HEPES pH 7.5, 0.01% BRIJ-35, 10 mM MgCl2, 1 mM EGTA).
Development Reagent Solution:
The Development Reagent is diluted in Development Buffer
Bar-coded Corning, low volume NBS, 384-well plate (Corning Cat. #3676)
1. 2.5 μL-4× Test Compound
2. 5 μL-2× Peptide/Kinase Mixture
5. 60-minute Kinase Reaction incubation at room temperature
6. 5 μL-Development Reagent Solution
8. 60-minute Development Reaction incubation at room temperature
9. Read on fluorescence plate reader and analyze the data
The following equations are used for each set of data points: […]
Correction for Background Fluorescence: FSample−FITCFl Ctl
Emission Ratio (using values corrected for background fluorescence):Coumarin
Emission (445 nm)/Fluorescein Emission (520 nm)
% Phosphorylation (% Phos): 1−((Emission Ratio×F100%)−C100%)/((C0%−C100%)+[Emission Ratio×(F100%−F0%)])*100 % Inhibition: 1−(% PhosSample/% Phos0% Inhibition Ctl)*100 FI=Fluorescence Intensity C100%=Average Coumarin emission signal of the 100% Phos. Control C0%=Average Coumarin emission signal of the 0% Phos. Control F100%=Average Fluorescein emission signal of the 100% Phos. Control F0%=Average Fluorescein emission signal of the 0% Phos. Control Graphing Software
SelectScreen® Kinase Profiling Service uses XLfit from IDBS. The dose response curve is curve fit to model number 205 (sigmoidal dose-response model).

Chain of MNK1a (Q9BUB5 1-424 isoform Q9BUB5-2): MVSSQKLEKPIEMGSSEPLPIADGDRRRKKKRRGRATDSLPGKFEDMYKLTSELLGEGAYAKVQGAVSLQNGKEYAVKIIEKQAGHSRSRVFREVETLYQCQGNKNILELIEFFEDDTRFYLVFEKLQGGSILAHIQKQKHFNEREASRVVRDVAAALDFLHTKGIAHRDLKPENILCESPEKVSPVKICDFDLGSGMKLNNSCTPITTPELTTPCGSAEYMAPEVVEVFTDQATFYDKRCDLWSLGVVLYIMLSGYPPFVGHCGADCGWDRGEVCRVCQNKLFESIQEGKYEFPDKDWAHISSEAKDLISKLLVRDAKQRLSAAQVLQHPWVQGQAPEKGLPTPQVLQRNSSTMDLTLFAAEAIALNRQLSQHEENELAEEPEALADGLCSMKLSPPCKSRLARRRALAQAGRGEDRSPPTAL

Row | inhibition at 1 µM [%] | SMILES
21 | 95 | Cc1cc(N=S2(=O)CCOCC2)cc2ncnc(Nc3ccc(F)cc3O[C@@H]3CO[C@H]4[C@@H]3OC[C@H]4O)c12 [Example 2.2]
22 | 89 | Cc1cc(N=S(C)(=O)c2ccncc2)cc2ncnc(Nc3ccc(F)cc3O[C@H]3CCOC3)c12 (stereo partly drawn) [Example 2.100]
23 | 100 | Cc1cc(N=S(C)(C)=O)cc2ncnc(Nc3ccc(F)cc3O[C@@H]3CO[C@H]4[C@@H]3OC[C@H]4O)c12 [Example 1.18]
24 | 100 | CO[C@@H]1CO[C@H]2[C@@H]1OC[C@H]2Oc1cc(F)ccc1Nc1ncnc2cc(N=S(C)(C)=O)cc(F)c12 [Example 2.76]
25 | 88 | Cc1cc(N=S2(=O)CCCC2)cc2ncnc(Nc3ccc(F)cc3O[C@@H]3CO[C@@H]4OCC[C@@H]43)c12 (racemic) [Example 2.82]
26 | 100 | O=S1(=Nc2cc(Cl)c3c(Nc4ccc(F)cc4O[C@H]4CCOC4)ncnc3c2)CCC1 [Example 1.26]
27 | 73 | Cc1cc(N=S(C)(C)=O)cc2ncnc(Nc3ccc(F)cc3O[C@H]3CO[C@H]4[C@@H]3OC[C@@H]4O)c12 [Example 2.80]
28 | 98 | Cc1cc(N=S(C)(C)=O)cc2ncnc(Nc3ccc(F)cc3O[C@@H]3CO[C@H]4[C@@H]3OC[C@H]4OC(C)C)c12 [Example 2.28]
29 | 73 | Cc1cc(N=S(C)(C)=O)cc2ncnc(Nc3ccc(F)cc3O[C@@H]3CO[C@@H]4OCC[C@@H]43)c12 (racemic) [Example 2.62]
30 | 94 | Cc1cc(N=S(C)(C)=O)cc2ncnc(Nc3ccc(F)nc3O[C@H]3CCOC3)c12 [Example 1.40]
31 | 100 | Cc1cc(N=S2(=O)CCCC2)cc2ncnc(Nc3ccc(F)cc3O[C@H]3CC[C@H](O)CC3)c12 [Example 2.40]
32 | 93 | Cc1cc(N=S(C)(C)=O)cc2ncnc(Nc3ccc(C(N)=O)cc3OC3CCCC3)c12 [Example 2.24]
33 | 98 | Cc1cc(N=S2(=O)CCC2)cc2ncnc(Nc3ccc(F)cc3O[C@@H]3CO[C@@H]4CCO[C@@H]43)c12 [Example 2.106]
34 | 73 | CC(C)(C)OC(=O)N1CCC[C@@H](Oc2cc(F)ccc2Nc2ncnc3cc(N=S(C)(C)=O)cc(F)c23)C1 [Example 2.13]
35 | 92 | Cc1cc(N=S(C)(C)=O)cc2ncnc(Nc3ccc(F)cc3O[C@H]3C[C@H](N(C)C)C3)c12 [Example 7.15]
36 | 92 | Cc1cc(N=S(C)(C)=O)cc2ncnc(Nc3ccc(F)cc3O[C@@H]3CCCN(CC(F)(F)F)C3)c12 [Example 6.6]
37 | 89 | Cc1cc(N=S(C)(=O)C(C)(C)C#N)cc2ncnc(Nc3ccc(F)cc3O[C@H]3CCOC3)c12 (stereo partly drawn) [Example 2.111]
38 | 101 | Cc1cc(N=S(C)(C)=O)cc2ncnc(Nc3cccnc3O[C@H]3CC[C@H](N)CC3)c12 [Example 3.2]

Same assay, conditions: compound concentration of 1 μM, 1 µM

Row | % Inhibition of MNK1 [%] | SMILES
39 | 91 | CCS(C)(=O)=Nc1cc(C)c2c(Nc3ccc(F)cc3OC3CCOC3)ncnc2c1 (single isomer, unassigned) [Example 7.14]

Same assay, conditions: pre-activated GST-MNK1a

Row | IC50 [nM] | SMILES
40 | 57 | CO[C@@H]1CO[C@H]2[C@@H]1OC[C@H]2Oc1cc(F)ccc1Nc1ncnc2cc(N=S(C)(C)=O)cc(F)c12 [Example 2.76]
41 | 56 | Cc1cc(N=S2(=O)CCCC2)cc2ncnc(Nc3ccc(F)cc3O[C@H]3CC[C@H](O)CC3)c12 [Example 2.40]
42 | 74 | Cc1cc(N=S(C)(C)=O)cc2ncnc(Nc3ccc(Cl)nc3O[C@H]3CCOC3)c12 [Example 1.41]
